Assay results as given in patent US20060070135A1, “Compositions and methods for inhibiting the enzymatic activity of PTP-1B” (priority 1998, published 2006).

Assays:
[1] = tested on: phosphorylation level of the insulin receptor in CHO-IR cells (endogenous PTP-1B); assay: Intact cell assay: insulin receptor phosphorylation level in CHO-IR cells treated with PTP-1B inhibitors and stimulated with insulin; type: cell-based, Chinese hamster; conditions: 5 nM insulin; for Intact cell assay: fold-increase over control / fold induction at 50 µM: at 50 μM
Method: The phosphorylation level of the insulin receptor (IR) was determined in CHO-IR cells (Chinese hamster ovarian cells expressing endogenous PTP-1B and overexpressing human insulin receptor; ATCC, Manassas, Va.) treated with PTP-1B inhibitors and stimulated with 5 nM insulin. CHO-IR cells were grown in F12 media, 10% fetal bovine serum (FBS), and 1% penstrep. All experiments were conducted within the first 12 passages after thawing cells.
On the first day of the experiment, CHO-IR cells were placed in 6-well plates (1/10 of 100 mm confluent plate). Once cells were confluent (˜24 hours later), the cells were starved overnight in 0% fetal bovine serum F12 medium. After the overnight incubation, the medium was changed to fresh 0% F12 30 minutes prior to the addition of inhibitor. A 1 mL aliquote of media containing inhibitor (10, 25 or 50 μM), with a final concentration of 0.1% DMSO, was added to each well. The inhibitors were added directly to the serum-free media, shortly before using them (i.e., the inhibitor was added to cells within 10 minutes of dilution). Cells were incubated with inhibitors for 2-4 hours. A 250 μL aliquote of insulin (human insulin, HUMULIN™ was subsequently added to each well at a final concentration of 5 nM. The cells were incubated for an additional 10 minutes and washed 2× with cold phosphate-buffered saline (PBS). Proteins were isolated with modified RIPA buffer (200 μL/well) containing protease inhibitor (COMPLETE™), NaF, and Na3VO4.
Protein quantification was conducted using Bradford reagent (BIO-RAD, Hercules, Calif.). Proteins were separated in an 8% SDS-PAGE gel with 25-40 μg protein per well. The proteins were subsequently transferred to PDVF membrane for western blot analysis. Membranes were blocked for 1 hour in either 1% bovine serum albumin for the 4G10 antibody or 5% milk for other antibodies. Membranes were incubated overnight at 4° C. with 4G10 or phospho-antibody, washed 4×5 minutes to remove the primary antibody, incubated 1 hour with secondary antibody, washed an additional 4×5 minutes, and visualized using an ECL detection kit.
Membranes were subsequently stripped, blocked for 1 hour and probed with anti-P-IR, anti-IR, anti-p-AKT, and anti-AKT primary antibodies. Primary antibodies were anti-IR pY1162pY1163 (human) polyclonal antibody and anti-1-IR polyclonal antibody. The blots were washed 4×5 minutes to remove primary antibody, incubated 1 hour in anti-rabbit HRP secondary antibody, washed an additional 4×5 minutes and visualized using ECL.
Bands visualized on the blots were quantified using NIH Image 1.62. Quantification was conducted for at least three experiments.

[2] = molecular target: Insulin receptor (mouse, endogenous; β-subunit immunoprecipitated from tissue membrane fractions) (mouse) (UniProt P15208); assay: cell-based or functional assay
[3] = Cricetulus griseus, read-out: Intact cell assay: fold-increase over control

UniProt P15208, sequence (P15208 753-1372 limits assumed): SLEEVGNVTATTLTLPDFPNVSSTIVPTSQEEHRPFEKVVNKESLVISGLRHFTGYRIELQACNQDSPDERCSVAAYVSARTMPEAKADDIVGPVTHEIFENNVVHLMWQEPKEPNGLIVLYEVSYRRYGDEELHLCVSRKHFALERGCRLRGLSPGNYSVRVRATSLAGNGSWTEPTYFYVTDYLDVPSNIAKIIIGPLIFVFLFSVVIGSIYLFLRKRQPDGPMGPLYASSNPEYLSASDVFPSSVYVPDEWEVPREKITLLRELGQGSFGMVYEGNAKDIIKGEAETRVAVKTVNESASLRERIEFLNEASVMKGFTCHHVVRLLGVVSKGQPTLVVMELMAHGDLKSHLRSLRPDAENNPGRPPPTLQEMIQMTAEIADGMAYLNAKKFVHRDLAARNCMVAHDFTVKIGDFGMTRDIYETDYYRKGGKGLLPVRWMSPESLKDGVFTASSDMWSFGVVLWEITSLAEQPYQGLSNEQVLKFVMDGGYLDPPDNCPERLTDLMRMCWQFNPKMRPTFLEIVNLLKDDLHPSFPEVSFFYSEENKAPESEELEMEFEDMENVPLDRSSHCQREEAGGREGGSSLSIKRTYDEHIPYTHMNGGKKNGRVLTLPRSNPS

| Compound | Intact cell assay: fold-increase over control [1] | further results |
| --- | --- | --- |
| Nc1c(S(=O)(=O)O)cc(S(=O)(=O)O)c2cccc(O)c12 [compound 11, 4-amino-5-hydroxynaphthalene-1,3-disulfonic acid] | Inactive at 50 μM | – |
| N#CC(C#N)=C1CSc2sc(=S)sc2SC1 [compound 13, 2-(2-thioxo-[1,3]dithiolo[4,5-b][1,4]dithiepin-6-ylidene)malononitrile] | Inactive at 50 μM | – |
| CCc1nnc(NS(=O)(=O)c2ccc(NC(=S)NC(=O)/C=C/c3ccc(C(C)C)cc3)cc2)s1 [compound 14, N-(5-ethyl-[1,3,4]thiadiazol-2-yl)-4-{3-[3-(4-isopropylphenyl)-acryloyl]-thioureido}-benzenesulfonamide] | Inactive at 50 μM | – |
| COc1ccc(-c2csc(N3N=C(c4ccc([N+](=O)[O-])cc4)C(=NNc4ccc(S(N)(=O)=O)cc4)C3=O)n2)cc1 [compound 15, 4-{N′-[1-[4-(4-methoxyphenyl)-thiazol-2-yl]-3-(4-nitrophenyl)-5-oxo-1,5-dihydropyrazol-4-ylidene]-hydrazino}-benzenesulfonamide] | Inactive at 50 μM | – |
| O=C(/C=C/c1ccco1)Nc1ccc(C(=O)O)cc1NC(=O)/C=C/c1ccco1 [compound 16, 3,4-bis-(3-furan-2-ylacryloylamino)-benzoic acid] | Inactive at 50 μM | – |
| O=C(O)c1ccc(N2C(=O)/C(=C/c3ccc(-c4ccc([N+](=O)[O-])cc4)o3)C=C2c2ccccc2)cc1 [compound 17, 4-{3-[5-(4-nitrophenyl)-furan-2-ylmethylene]-2-oxo-5-phenyl-2,3-dihydropyrrol-1-yl}-benzoic acid] | Inactive at 50 μM | – |
| Nc1nnnn1/N=C/c1cc(I)cc(I)c1O [compound 19, 2-[(5-aminotetrazol-1-ylimino)-methyl]-4,6-diiodophenol] | Inactive at 50 μM | – |
| O=[N+]([O-])c1ccc(O)c(/C=N/N=c2/[nH]c3nonc3nc2Nc2ccc(I)cc2)c1 [compound 20, 2-{[6-(4-iodophenylamino)-4H-[1,2,5]oxadiazolo[3,4-b]pyrazin-5-ylidene]-hydrazonomethyl}-4-nitrophenol] | Inactive at 50 μM | – |
| O=C1C=CC(=O)c2c(O)cccc21 [compound 21, 5-hydroxy-[1,4]-naphthoquinone] | – | fold induction at 50 µM [1, 3]: 0.87 |
| COc1cc(/C=C2/SC(=S)N(c3cccc(Cl)c3)C2=O)cc([N+](=O)[O-])c1O [compound 22, 3-(3-chlorophenyl)-5-(4-hydroxy-3-methoxy-5-nitrobenzylidene)-2-thioxothiazolidin-4-one] | – | fold induction at 25 µM ([1]; Cricetulus griseus, at 25 μM, read-out: Intact cell assay: fold-increase over control): 2.7; fold induction at 50 µM [1, 3]: 4.1 |
| Protein tyrosine phosphatase-1B (mouse, endogenous) (from UniProt P35821 1-432) | – | insulin receptor tyrosine phosphorylation in liver of wild-type mice, 5 minutes against 1 minute after insulin injection [2]: 50% |
| Protein tyrosine phosphatase-1B (mouse, endogenous) (from UniProt P35821 1-432) (enzyme) | – | insulin receptor phosphorylation level in muscle after insulin challenge, PTP-1B (+/-) against wild-type mice on high fat, high carbohydrate diet [2]: 2 fold; insulin receptor phosphorylation level in muscle after insulin challenge, PTP-1B (-/-) against wild-type mice on high fat, high carbohydrate diet [2]: 4 fold; phosphotyrosine level of the insulin receptor in muscle of insulin treated PTP-1B null mice compared to wild-type (immunoprecipitation, anti-phosphotyrosine immunoblot, densitometry) [2]: 40% |
